The values that follow come from patent US8815852B2, “Carbamoyloxy arylalkan arylpiperazine analgesics” (SK Biopharmaceuticals Co., Ltd., priority 2007, dated 2014).

The subject of the first assay is male ICR mouse. The assay can be described thus: Acetic acid-induced writhing test in mouse. It is filed as in vivo. The conditions noted are these: Mus musculus, po, 1 h, at 10 po (method: 10 mg/kg oral, 1 hour before acetic acid); read-out: AA Writhing: Suppression ratio of Pain response. How it is done:
2. Acetic Acid-Induced Writhing Test in Mouse
An acetic acid-induced writhing test is one of models for measuring an analgesic effect of drugs. A test material dissolved in a suitable vehicle was orally administered to a male ICR mouse weighing 30 to 35 g at an amount of 10 mg/kg. After 1 hour of the oral administration, […] of an aqueous 0.8% acetic acid solution was intraperitoneally injected into the male ICR mouse to induce the abdominal pain of the male ICR mouse. Right after the administration of acetic acid, the male ICR mouse was put into an empty cage, and the number of writhing behaviors of the mice was counted for 10 minutes. The term “writhing represents a reflex action in which the mouse overtly extends its abdomen by stretching its hind legs due to the abdominal pain. The analgesic effect of the test material is represented by the ‘suppression ratio of pain response’ {[(Writhing number of Vehicle-administered group−Writhing number of Test material-administered group)/(Writhing number of Vehicle-administered group)]×100%} or 50% of Effective amount (ED50 (median effective dose); an amount of test material that is required to suppress 50% of pain behaviors) of Test material. The ED50 (median effective dose) was determined by calculating the suppression ratio of pain response in at least three doses of test materials and subjecting to the linear regression.
In general terms: An intraperitoneal irritant provokes the stretching counted in writhing tests.
In the case of `CCOc1ccccc1N1CCN(CCC(OC(N)=O)c2ccc(F)cc2)CC1` (centres unmarked) [Example 74, Carbamic acid 3-[4-(2-ethoxy-phenyl)-piperazin-1-yl]-1-(4-fluoro-phenyl)-propyl ester], the inhibition in vivo at 10 mg/kg came out at 44%.
The same measure, in the same setting: then `COc1ccc(N2CCN(CCC(OC(N)=O)c3ccccc3Cl)CC2)cc1` (centres unmarked) [Example 50, Carbamic acid 1-(2-chloro-phenyl)-3-[4-(4-methoxy-phenyl)-piperazin-1-yl]-propyl ester], with 49%; and `CC(CC(OC(N)=O)c1ccccc1)N1CCN(c2ccc(Cl)cc2)CC1` (centres unmarked) [Example 109, Carbamic acid 3-[4-(4-chloro-phenyl)-piperazin-1-yl]-1-phenyl-butyl ester], with 84%; and `NC(=O)OC(CCN1CCN(c2ccc(Cl)c(Cl)c2)CC1)c1ccc(F)cc1` (centres unmarked) [Example 76, Carbamic acid 3-[4-(3,4-dichloro-phenyl)-piperazin-1-yl]-1-(4-fluoro-phenyl)-propyl ester], with 50%.
The same measure, in the same setting: then `NC(=O)OC(CCN1CCN(c2ccccc2O)CC1)c1ccccc1` (centres unmarked) [Example 23, Carbamic acid 3-[4-(2-hydroxy-phenyl)-piperazin-1-yl]-1-phenyl-propyl ester], with 37%.
Same read-out and setting: then `COc1cc(OC)cc(N2CCN(CCC(OC(N)=O)c3ccccc3)CC2)c1` (centres unmarked) [Example 33, Carbamic acid 3-[4-(3,5-dimethoxy-phenyl)-piperazin-1-yl]-1-phenyl-propyl ester], with 13%.
With `NC(=O)OC(CCN1CCN(c2ccc(OC(=O)OCc3ccccc3)cc2)CC1)c1ccc(F)cc1` (centres unmarked) [Example 91, Carbonic acid benzyl ester 4-{4-[3-carbamoyloxy-3-(4-fluoro-phenyl)-propyl]-piperazin-1-yl}-phenyl ester], the inhibition in vivo at 10 mg/kg worked out at 45%.
As to `COc1ccc(N2CCN(C(C)CC(OC(N)=O)c3ccccc3)CC2)cc1OC` (centres unmarked) [Example 113, Carbamic acid 3-[4-(3,4-dimethoxy-phenyl)-piperazin-1-yl]-1-phenyl-butyl ester], the inhibition in vivo at 10 mg/kg is 57%.
Same read-out and setting: the result for `COc1ccc(N2CCN(CCC(OC(N)=O)c3ccc([N+](=O)[O-])cc3)CC2)cc1` (centres unmarked) [Example 44, Carbamic acid 3-[4-(4-methoxy-phenyl)-piperazin-1-yl]-1-(4-nitro-phenyl)-propyl ester] reads 64%; that for `CC(CC(OC(N)=O)c1ccccc1)N1CCN(c2cnc3ccccc3n2)CC1` (centres unmarked) [Example 112], 72%.
As for `NC(=O)OC(CCN1CCN(c2ccc(O)cc2)CC1)c1ccc(Cl)c(Cl)c1` (centres unmarked) [Example 73, Carbamic acid 1-(3,4-dichloro-phenyl)-3-[4-(4-hydroxy-phenyl)-piperazin-1-yl]-propyl ester], the inhibition in vivo at 10 mg/kg turned out to be 55%.
`COc1ccc(N2CCN(C(C)CC(OC(N)=O)c3ccccc3)CC2)cc1` (centres unmarked) [Example 108, Carbamic acid 3-[4-(4-methoxy-phenyl)-piperazin-1-yl]-1-phenyl-butyl ester]: the inhibition in vivo at 10 mg/kg amounted to 83.5%.
With `COc1ccc(C(CCN2CCN(c3ccc(OC)cc3)CC2)OC(N)=O)cc1` (centres unmarked) [Example 47, Carbamic acid 1-(4-methoxy-phenyl)-3-[4-(4-methoxy-phenyl)-piperazin-1-yl]-propyl ester], the inhibition in vivo at 10 mg/kg came out at 53%.
On to `CC(C)(C)C(=O)Oc1ccc(N2CCN(CCC(OC(N)=O)c3ccc(F)cc3)CC2)cc1` (centres unmarked) [Example 89, 1-(4-fluorophenyl)-3-(4-(4-(pivaloyloxy)phenyl)piperazin-1-yl)propyl carbamate], for which the inhibition in vivo at 10 mg/kg was 63%.
The same measure, in the same setting: the result for `COc1ccc(N2CCN(CCC(OC(N)=O)c3ccccc3C)CC2)cc1` (centres unmarked) [Example 59, Carbamic acid 3-[4-(4-methoxy-phenyl)-piperazin-1-yl]-1-o-tolyl-propyl ester] reads 48%; that for `COc1ccc(N2CCN(CCC(OC(N)=O)c3ccccc3[N+](=O)[O-])CC2)cc1` (centres unmarked) [Example 64, Carbamic acid 3-[4-(4-methoxy-phenyl)-piperazin-1-yl]-1-(2-nitro-phenyl)-propyl ester], 59%; that for `COc1ccc(N2CCN(CCC(OC(N)=O)c3ccc(C)c(C)c3)CC2)cc1` (centres unmarked) [Example 61, Carbamic acid 1-(3,4-dimethyl-phenyl)-3-[4-(4-methoxy-phenyl)-piperazin-1-yl]-propyl ester], 58%.
On the same count and under the same terms, then `COc1ccc(N2CCN(CCC(OC(N)=O)c3ccc(Cl)c(Cl)c3)CC2)cc1` (centres unmarked) [Example 70, Carbamic acid 1-(3,4-dichloro-phenyl)-3-[4-(4-methoxy-phenyl)-piperazin-1-yl]-propyl ester], with 51%; and `COc1ccc(N2CCN(CCC(OC(N)=O)c3ccc(Cl)cc3Cl)CC2)cc1` (centres unmarked) [Example 58, Carbamic acid 1-(2,4-dichloro-phenyl)-3-[4-(4-methoxy-phenyl)-piperazin-1-yl]-propyl ester], with 16%; and `COc1ccc(N2CCN(CCC(OC(N)=O)c3cc(C)ccc3C)CC2)cc1` (centres unmarked) [Example 62, Carbamic acid 1-(2,5-dimethyl-phenyl)-3-[4-(4-methoxy-phenyl)-piperazin-1-yl]-propyl ester], with 62%.
Same read-out and setting: then `NC(=O)OC(CCN1CCN(c2ccc(Cl)c(C(F)(F)F)c2)CC1)c1ccccc1` (centres unmarked) [Example 18, Carbamic acid 3-[4-(4-chloro-3-trifluoromethyl-phenyl)-piperazin-1-yl]-1-phenyl-propyl ester], with 52%.
`COc1ccc(N2CCN(CCC(OC(N)=O)c3cccc(OC)c3)CC2)cc1` (centres unmarked) [Example 54, Carbamic acid 1-(3-methoxy-phenyl)-3-[4-(4-methoxy-phenyl)-piperazin-1-yl]-propyl ester]: the inhibition in vivo at 10 mg/kg worked out at 69%.
Same read-out and setting: then `COc1ccc(N2CCN(CCC(OC(N)=O)c3cccc(F)c3)CC2)cc1` (centres unmarked) [Example 53, Carbamic acid 1-(3-fluoro-phenyl)-3-[4-(4-methoxy-phenyl)-piperazin-1-yl]-propyl ester], with 57%; and `Cc1cccc(C)c1N1CCN(CCC(OC(N)=O)c2ccccc2)CC1` (centres unmarked) [Example 19, Carbamic acid 3-[4-(2,6-dimethyl-phenyl)-piperazin-1-yl]-1-phenyl-propyl ester], with 48%; and `CC(CC(OC(N)=O)c1ccccc1)N1CCN(c2ccc(Cl)c(Cl)c2)CC1` (centres unmarked) [Example 115, Carbamic acid 3-[4-(3,4-dichloro-phenyl)-piperazin-1-yl]-1-phenyl-butyl ester], with 68%.

The assay is the same for the next values; noted with them: Mus musculus; ip; unit not given (method doses in mg/kg); read-out: AA Writhing: ED50.
Consider `Cc1cccc(N2CCN(CCC(OC(N)=O)c3ccccc3)CC2)c1` (centres unmarked) [Example 24, Carbamic acid 1-phenyl-3-(4-m-tolylpiperazin-1-yl)-propyl ester], for which the median effective dose (ED50) came to 0.81 mg/kg.
Same read-out and setting: then `NC(=O)OC(CCN1CCN(c2ccc(C(F)(F)F)cc2)CC1)c1ccccc1` (centres unmarked) [Example 40, Carbamic acid 1-phenyl-3-[4-(4-trifluoromethyl-phenyl)-piperazin-1-yl]-propyl ester], with 1.64 mg/kg.

Staying with this assay, now noted: Mus musculus; po; unit not given (method doses in mg/kg); read-out: AA Writhing: ED50.
For `COc1ccc(N2CCN(CCC(OC(N)=O)c3ccc(F)cc3)CC2)cc1` (centres unmarked) [Example 77, Carbamic acid 1-(4-fluoro-phenyl)-3-[4-(4-methoxy-phenyl)-piperazin-1-yl]-propyl ester], the ED50 worked out at 12.4 mg/kg.
The same measure, in the same setting: then `CCOC(=O)Oc1ccc(N2CCN(CCC(OC(N)=O)c3ccc(F)cc3)CC2)cc1` (centres unmarked) [Example 90, Carbonic acid 4-{4-[3-carbamoyloxy-3-(4-fluoro-phenyl)-propyl]-piperazin-1-yl}-phenyl ethyl ester], with 23.4 mg/kg.

By ED50 is commonly meant the dose at which the effect has come halfway, by size or by number of responders.
